Measurements taken from publication PMC4416907, “An Unexpected Mode Of Binding Defines BMS948 as A Full Retinoic Acid Receptor β (RARβ, NR1B2) Selective Agonist” (PLoS ONE, 2015).

Key:
human RARα1 = system: T1, human RARα1; test: Transient transactivation reporter assay, (RARE)3x-tk-luciferase in HeLa cells, agonist mode; assay type: cell-based; settings: for agonistic activity on RARα-mediated transactivation: HeLa cells, ligand at single selective concentration, compared with 10 nM TTNPB (100%)
T1 construct: expressed in transfected cells; host or cells: HeLa
Source text: (§1) To evaluate the activity of a panel of synthetic retinoids (Fig 1) on RAR-mediated transactivation, we used HeLa cells transiently transfected with human RARα1,-β2, or—γ2 and a (RARE)3x-tk-luciferase reporter gene. Well characterized full agonist and antagonist retinoids were also used as reference compounds (S2 Fig). […] To further characterize the activation profile of BMS compounds, transfected cells were exposed to a range of ligand concentrations to establish dose-response curves.
(§2) (A to C) HeLa cells were transiently cotransfected with the reporter (RARE)3x-tk-Luc and RARα (A), RARβ (B) or RARγ (C), as indicated, to assess the RAR agonist potential of synthetic RAR ligands.
(§3) HeLa cells were cultured in DMEM with Glutamax and 10% (v/v) FCS and transfected using JetPei transfectant (Ozyme). After 24 h, the medium was changed to a medium containing the indicated ligands or vehicle. Cells were lysed and assayed for reporter expression 48 h after transfection. The luciferase assay system was used according to the manufacturer’s instruction (Promega). In each case results were normalized to coexpressed β–galactosidase. Each transfection was carried out in duplicate and repeated each three to six times.

human RARβ2 = biological target: T2, human RARβ2 (Homo sapiens, UniProt P10826); test: as above; assay type: cell-based
T2 construct: expressed in transfected cells; host or cells: HeLa
T2 sequence (P10826 1-448 isoform P10826-2): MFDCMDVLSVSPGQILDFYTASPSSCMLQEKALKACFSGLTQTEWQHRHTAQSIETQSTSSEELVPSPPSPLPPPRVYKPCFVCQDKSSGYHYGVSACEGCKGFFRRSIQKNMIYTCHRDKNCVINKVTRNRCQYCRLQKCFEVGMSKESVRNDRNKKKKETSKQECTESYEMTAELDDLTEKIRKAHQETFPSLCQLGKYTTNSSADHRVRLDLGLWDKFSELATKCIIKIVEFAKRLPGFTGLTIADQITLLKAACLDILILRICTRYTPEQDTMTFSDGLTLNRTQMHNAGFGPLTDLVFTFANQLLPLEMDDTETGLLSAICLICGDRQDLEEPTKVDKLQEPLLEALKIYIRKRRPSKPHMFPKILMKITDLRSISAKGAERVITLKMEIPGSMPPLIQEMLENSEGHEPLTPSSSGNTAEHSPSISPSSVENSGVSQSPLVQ
Source text: as §1, §2, §3

human RARγ2 = system: T3, human RARγ2; test: as above; assay type: cell-based
T3 construct: expressed in transfected cells; host or cells: HeLa
Source text: as §1, §2, §3

RARα = biological target: T4, RARα (Homo sapiens, UniProt P10276); test: Transient transactivation assay, antagonist mode (competition with TTNPB-induced activity); assay type: cell-based; settings: reporter activated with 3 nM TTNPB (100%); retinoids at 1 μM or increasing amounts
T4 construct: expressed in transfected cells; host or cells: HeLa
T4 sequence (P10276 1-462): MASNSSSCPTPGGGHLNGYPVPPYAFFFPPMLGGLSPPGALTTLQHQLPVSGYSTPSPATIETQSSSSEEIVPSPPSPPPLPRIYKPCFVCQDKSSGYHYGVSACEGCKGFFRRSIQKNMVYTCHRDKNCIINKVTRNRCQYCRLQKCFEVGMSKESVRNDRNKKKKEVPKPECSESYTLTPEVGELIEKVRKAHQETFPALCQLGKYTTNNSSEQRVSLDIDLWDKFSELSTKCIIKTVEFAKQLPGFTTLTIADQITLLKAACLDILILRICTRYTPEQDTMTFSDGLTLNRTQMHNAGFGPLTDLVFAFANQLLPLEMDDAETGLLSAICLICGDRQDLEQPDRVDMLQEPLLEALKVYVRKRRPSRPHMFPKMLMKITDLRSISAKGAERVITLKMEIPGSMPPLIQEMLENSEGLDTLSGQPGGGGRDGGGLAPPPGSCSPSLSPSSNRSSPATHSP
Experimental: (§4) To this end, transient transactivation assays were conducted in order to assess the ability of the synthetic retinoids to affect TTNPB-induced RAR activity. […] Competition curves with increasing concentrations of BMS411 yielded an IC50 of roughly 30 nM for RARα in keeping with the high affinity of this compound for this receptor subtype (Fig 3D). […] Overall, our data lead to the general conclusion that BMS948 is a full RARβ-selective agonist.
(§5) Fig 3 BMS948 is an RARβ-selective ligands. (A to C) Transient transactivation assays as in Fig 2 to assess the antagonist potential of synthetic RAR ligands (RARα (A), RARβ (B) or RARγ (C)).
as §3

RARβ [1] = system: T5, RARβ; test: as above; assay type: cell-based, human; settings: reporter activated with 3 nM TTNPB (100%); retinoids at 1 μM or increasing amounts
T5 construct: expressed in transfected cells; host or cells: HeLa
Experimental: as §4, §5, §3

RARγ [2] = system: T6, RARγ; test: as above; assay type: cell-based, human; settings: reporter activated with 3 nM TTNPB (100%); retinoids at 1 μM or increasing amounts
T6 construct: expressed in transfected cells; host or cells: HeLa
Experimental: as §4, §5, §3

hRARβL298F = system: T7, hRARβL298F; test: Transient transactivation assay with mutant hRARβL298F in HeLa cells; assay type: cell-based, human
T7 construct: expressed in transfected cells; host or cells: HeLa
Experimental: The construct was verified by DNA sequencing.
as §3
(EPS) Click here for additional data file.

RARβ-TIF2 interaction = system: T8, RARβ-TIF2 interaction; test: Mammalian two-hybrid assay Gal-TIF2 / VP16-RARβLBD in HeLa cells; assay type: cell-based; settings: BMS compounds at 1 μM, TTNPB 10 nM
T8 construct: expressed in transfected cells; host or cells: HeLa
Source text: (§6) Supplementary file pone.0123195.s005.eps: S5 Fig Molecular basis of BMS641 partial activity. According to the current model of gene regulation by RARs, the agonistic property of a given retinoid depends on its ability to induce coregulator recruitment. RAR agonists dissociate corepressors (such as SMRT) and induce the recruitment coactivators (such as TIF2), resulting in transactivation. […] BMS641 was therefore categorized as a partial RARβ agonist. To further characterize the partial activity of BMS641, we used two-hybrid assays to monitor the interaction between RARβ and transcriptional coregulators in the presence of various retinoids. In these assays, a chimeric luciferase-based reporter gene ((17 m)5x-βGlob-Luc) is transfected together with two expression vectors. One expresses a fusion protein (Gal-TIF2 or Gal-SMRT) that binds through the Gal DNA binding domain (Gal) to the pentamer of the “17m” DNA recognition site in the reporter gene and contains the nuclear receptor interacting domain of the coregulator. The other vector expresses a second fusion protein composed of the VP16 acidic transcription activation domain, and the LBD of RARβ. […] Strikingly, the RARβ-SMRT interaction was maintained in the presence of BMS641, in agreement with the partial agonistic activity of this compound. […] BMS641 induces reduced coactivator recruitment, but cannot dissociate corepressors. […]

RARβ-SMRT interaction = system: T9, RARβ-SMRT interaction; test: Mammalian two-hybrid assay Gal-SMRT / VP16-RARβLBD in HeLa cells; assay type: cell-based; settings: BMS compounds at 1 μM, TTNPB 10 nM; 100% = absence of ligand
T9 construct: expressed in transfected cells; host or cells: HeLa
Source text: as §6

RARγ→β = system: T10, RARγ→β; test: Transient transactivation assay with chimeric LBP mutant RARγ→β in HeLa cells; assay type: cell-based; settings: 10^–9 to 10^–6 M; 100% = TTNPB at 10nM
T10 construct: expressed in transfected cells; host or cells: HeLa
Source text: (§7) Supplementary file pone.0123195.s004.eps: S4 Fig The methionine 272 of RARγ LBP is a most important discriminatory element for the RARβ-specific response to BMS948. […] To investigate the role of these residues in the RARβ–specific response to BMS948, we compared the agonistic and antagonistic potentials of this compound for RARβ and RARγ, as well as chimeric RAR mutants in which LBPs were interconverted (denoted RARβ→γ and RARγ→β). Dose-response curves were established from transient transfection in HeLa cells of these proteins and a (RARE)3x-tk-luciferase reporter gene as described in Figs 2 and 3. […] (A) HeLa cells were transiently cotransfected with the reporter (RARE)3x-tk-Luc and RARβ (open circles), RARγ (closed diamonds), RARγ→β in which the methionine residue 272 in RARγ LBP is replaced by an isoleucine residue (open squares), or RARβ→γ in which the isoleucine residue 263 in RARβ LBP is replaced by a methionine residue (closed triangles) to assess the agonist potential of BMS948. […] (B) Transient transfection assays in HeLa cells with the reporter (RARE)3x-tk-Luc and RARβ→γ as in (A) to assess the antagonist potential of BMS948 and BMS493. […] (EPS) Click here for additional data file.

RARβ→γ = system: T11, RARβ→γ; test: Transient transactivation assay with chimeric LBP mutant RARβ→γ in HeLa cells; assay type: cell-based
T11 construct: expressed in transfected cells; host or cells: HeLa
Source text: as §7

RARβ [3] = settings: cited from earlier work
RARγ [4] = settings: also personal data not shown; cited from earlier work
[5] = 10^–10 to 10^–6 M, only at the highest ligand concentration used (1 μM)

In the case of `CC1(C)CCC(C)(C)c2cc(C(=O)Nc3ccc(C(=O)O)cc3)ccc21` [Am580, reference compound], the “agonistic activity on RARα-mediated transactivation” value (human RARα1) is reported as “full agonistic activity”.

For `O=C(O)c1ccc(NC(=O)c2ccc3cccc(-c4ccccc4)c3c2)cc1` [BMS948], the “activation of RARα in dose-response curves” value (human RARα1; [5]) was “very weakly”, the “agonistic activity on RARα-mediated transactivation” value (human RARα1) was “very weak activity” and the EC50 (human RARβ2; dose-response 10^–10 to 10^–6 M, read-out: EC50 transactivation for RARβ) was ~100 nM. For the same compound, the “agonistic activity on RARβ-mediated transactivation” value (human RARβ2; ligand at single selective concentration, compared with 10 nM TTNPB (100%)) was “full RARβ-agonist”, the “activation of RARγ in dose-response curves” value (human RARγ2; [5]) was “very weakly” and the “agonistic activity on RARγ-mediated transactivation” value (human RARγ2; HeLa cells, ligand at single selective concentration, compared with 10 nM TTNPB (100%)) was “very weak activity”. The “antagonistic activity on TTNPB-induced RARα transactivation” value (RARα) was “very weak”, the “antagonistic activity on TTNPB-induced RARβ transactivation” value (RARβ [1]) was “no” and the “antagonistic activity on TTNPB-induced RARγ transactivation” value (RARγ [2]) was “very weak”. The “efficacy on RARβL298F in dose-response curves” value (hRARβL298F; S6 Fig, increasing concentrations) was 70%, the “transcriptional activity on RARβL298F as compared to TTNPB” value (hRARβL298F; retinoids at 0.1 μM, 10 nM TTNPB = 100% with wild-type hRARβ) was 50–60% and the “RARβ-TIF2 interaction (coactivator recruitment)” value (RARβ-TIF2 interaction) was “optimal”. The “RARβ-SMRT interaction (corepressor binding)” value (RARβ-SMRT interaction) was “decreased”, the “agonist potential on RARγ→β” value (RARγ→β) was “potent full agonist” and the “antagonist potential on RARβ→γ” value (RARβ→γ; 3 nM TTNPB (100%) plus compound at 1 μM) was “did not reduce TTNPB-induced activity”. For the same compound, the “agonist potential on RARβ→γ” value (RARβ→γ; 10^–9 to 10^–6 M, 100% = TTNPB at 10nM, only at high concentration) was “very weak activation”.

In the case of `CN1c2cc3c(cc2N=C(c2ccc(C(=O)O)cc2)c2ccccc21)C(C)(C)CCC3(C)C` [LE135], the “reported activity on RARβ” value (RARβ [3]) is given as “antagonist showing some selectivity for RARβ” and the “reported activity on RARγ” value (RARγ [4]) is given as “some RARγ partial agonistic activity”.
